The target of experiment [1] is G-protein coupled receptor 55 (Homo sapiens, UniProt Q9Y2T6). Kind of experiment: GPR55 agonists via beta-arrestin recruitment, primary screen, imaging, U2OS cells, beta-arrestin-GFP redistribution (AID 1961). Type of experiment: functional. Background: Arrestin recruitment assays detect the binding of arrestin to an activated receptor.
The test system of another experiment is HeLa. Kind of experiment: HeLa cell cytotoxicity, dose response, cytotoxicity control, 48 h, plate reader, cherry-picks (AID 504942). Type of experiment: functional, cell-based. As to conditions: Homo sapiens.
Experiment [2] has as its target T1, Hepatocyte nuclear factor 4-alpha (Homo sapiens, UniProt P41235).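 Note: biochemical luminescence-based dose-response counterscreen measuring inhibition of HNF4 dimerization, run alongside a screen for blockers of ABHD5–perilipin-5 interaction; split luciferase complementation of HNF4 fusion proteins in cell lysate measuring dimerization.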
T1 sequence (P41235 whole entry): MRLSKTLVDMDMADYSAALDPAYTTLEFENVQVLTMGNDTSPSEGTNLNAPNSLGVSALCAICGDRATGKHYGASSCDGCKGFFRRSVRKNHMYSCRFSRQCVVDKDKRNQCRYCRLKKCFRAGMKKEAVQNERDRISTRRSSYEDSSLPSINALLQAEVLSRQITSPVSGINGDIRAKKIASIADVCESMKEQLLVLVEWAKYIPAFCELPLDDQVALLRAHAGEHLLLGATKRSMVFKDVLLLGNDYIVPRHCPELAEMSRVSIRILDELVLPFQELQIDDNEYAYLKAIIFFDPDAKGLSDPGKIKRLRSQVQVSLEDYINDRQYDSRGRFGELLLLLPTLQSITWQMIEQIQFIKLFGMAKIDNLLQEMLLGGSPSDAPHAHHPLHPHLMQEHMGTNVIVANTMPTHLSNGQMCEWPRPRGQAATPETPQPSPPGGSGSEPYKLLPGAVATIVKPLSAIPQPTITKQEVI
Type of experiment: functional, cell-based.

Experiment [3] deals with Neurotensin receptor type 1 (Homo sapiens, UniProt P30989). The format is functional.
Chain of Neurotensin receptor type 1 (P30989 whole entry): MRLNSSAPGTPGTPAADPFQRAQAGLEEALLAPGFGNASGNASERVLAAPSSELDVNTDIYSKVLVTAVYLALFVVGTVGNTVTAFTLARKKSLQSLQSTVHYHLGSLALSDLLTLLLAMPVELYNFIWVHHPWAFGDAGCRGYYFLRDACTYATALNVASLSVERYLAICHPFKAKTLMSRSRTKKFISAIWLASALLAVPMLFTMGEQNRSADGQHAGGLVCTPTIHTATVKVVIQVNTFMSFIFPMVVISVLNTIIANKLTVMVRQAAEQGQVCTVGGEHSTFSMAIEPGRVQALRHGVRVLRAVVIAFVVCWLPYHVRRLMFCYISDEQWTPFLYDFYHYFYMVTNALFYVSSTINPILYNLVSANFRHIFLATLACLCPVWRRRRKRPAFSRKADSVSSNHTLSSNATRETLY
The target of experiment [4] is T2, Acyl-homoserine lactone acylase PvdQ (Pseudomonas aeruginosa (strain LESB58), UniProt Q9I194).
T2 sequence (Q9I194 whole entry): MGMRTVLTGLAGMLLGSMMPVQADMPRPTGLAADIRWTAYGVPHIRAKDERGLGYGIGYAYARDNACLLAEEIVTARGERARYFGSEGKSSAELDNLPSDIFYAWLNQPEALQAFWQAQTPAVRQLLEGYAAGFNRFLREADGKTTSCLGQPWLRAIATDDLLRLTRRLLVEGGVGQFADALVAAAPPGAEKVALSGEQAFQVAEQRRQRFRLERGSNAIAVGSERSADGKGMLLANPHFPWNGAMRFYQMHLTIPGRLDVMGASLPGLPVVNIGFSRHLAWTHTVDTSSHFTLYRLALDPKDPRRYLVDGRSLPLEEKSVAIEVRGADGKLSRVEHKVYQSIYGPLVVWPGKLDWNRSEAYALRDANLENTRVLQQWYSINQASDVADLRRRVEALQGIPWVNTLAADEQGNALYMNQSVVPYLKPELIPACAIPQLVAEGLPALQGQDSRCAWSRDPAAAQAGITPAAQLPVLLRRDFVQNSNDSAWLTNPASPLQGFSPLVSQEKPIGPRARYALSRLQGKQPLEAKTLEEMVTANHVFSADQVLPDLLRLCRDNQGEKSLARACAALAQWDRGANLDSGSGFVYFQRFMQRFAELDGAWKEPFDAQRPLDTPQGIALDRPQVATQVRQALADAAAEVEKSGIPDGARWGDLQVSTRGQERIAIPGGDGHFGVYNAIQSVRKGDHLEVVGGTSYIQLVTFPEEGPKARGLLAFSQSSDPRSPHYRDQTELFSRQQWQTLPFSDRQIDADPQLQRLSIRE
Kind of experiment: P. aeruginosa PvdQ acylase inhibitors, dose response, biochemical, fluorescence, plate reader and imaging, cherry-picks (AID 493231).

The target in experiment [5] is T3, Sentrin-specific protease 8 (Homo sapiens, UniProt Q96LD8).
T3 sequence (Q96LD8 whole entry): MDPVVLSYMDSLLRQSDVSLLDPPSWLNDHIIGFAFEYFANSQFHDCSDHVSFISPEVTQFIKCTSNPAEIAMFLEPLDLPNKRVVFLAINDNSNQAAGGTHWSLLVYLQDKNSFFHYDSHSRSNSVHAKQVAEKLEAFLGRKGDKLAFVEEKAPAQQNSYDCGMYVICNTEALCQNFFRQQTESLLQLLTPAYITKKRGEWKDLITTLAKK
The experiment in a line: SENP8 protease inhibitors, SAR follow-up, biochemical, luminescence, set 2 (AID 588601). The format is functional.

For experiment [6], the target named is T3, Sentrin-specific protease 8. Kind of experiment: SENP8 protease inhibitors, SAR follow-up, biochemical, luminescence (AID 504501). The format is functional.
For experiment [7], the target named is T4, Sentrin-specific protease 6 (Homo sapiens, UniProt Q9GZR1).
T4 sequence (Q9GZR1 whole entry): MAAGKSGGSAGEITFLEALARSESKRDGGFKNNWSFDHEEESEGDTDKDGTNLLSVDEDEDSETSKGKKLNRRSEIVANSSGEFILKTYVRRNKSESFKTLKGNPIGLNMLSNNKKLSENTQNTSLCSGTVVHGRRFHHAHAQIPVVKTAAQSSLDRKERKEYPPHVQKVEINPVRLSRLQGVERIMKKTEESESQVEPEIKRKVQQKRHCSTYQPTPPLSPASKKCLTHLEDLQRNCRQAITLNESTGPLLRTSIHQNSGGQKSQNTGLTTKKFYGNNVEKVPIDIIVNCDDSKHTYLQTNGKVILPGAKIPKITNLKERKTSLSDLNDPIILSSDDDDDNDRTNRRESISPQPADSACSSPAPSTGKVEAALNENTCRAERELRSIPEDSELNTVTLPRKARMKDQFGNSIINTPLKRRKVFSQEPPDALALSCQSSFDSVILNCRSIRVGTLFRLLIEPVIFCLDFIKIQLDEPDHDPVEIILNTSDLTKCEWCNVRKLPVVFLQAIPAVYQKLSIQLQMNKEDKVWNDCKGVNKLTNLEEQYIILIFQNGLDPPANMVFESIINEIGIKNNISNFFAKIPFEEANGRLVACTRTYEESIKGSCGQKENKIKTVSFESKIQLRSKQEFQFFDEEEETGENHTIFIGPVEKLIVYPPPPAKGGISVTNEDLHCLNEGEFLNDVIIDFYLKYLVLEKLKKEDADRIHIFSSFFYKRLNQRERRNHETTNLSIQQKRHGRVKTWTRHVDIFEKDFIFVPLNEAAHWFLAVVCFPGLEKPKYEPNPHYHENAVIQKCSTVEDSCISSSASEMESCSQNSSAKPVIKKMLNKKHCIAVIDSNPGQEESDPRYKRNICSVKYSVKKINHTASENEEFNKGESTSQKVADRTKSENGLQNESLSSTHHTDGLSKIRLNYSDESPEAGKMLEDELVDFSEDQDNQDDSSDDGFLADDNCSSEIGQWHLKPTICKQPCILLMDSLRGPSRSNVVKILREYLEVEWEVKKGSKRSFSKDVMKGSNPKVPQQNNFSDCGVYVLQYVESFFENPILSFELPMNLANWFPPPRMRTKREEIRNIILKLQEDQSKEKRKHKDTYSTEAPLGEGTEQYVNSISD
The experiment in a line: SAR Analysis of small molecule inhibitors of Sentrin-specific protease 6 (SENP6) using a Luminescent assay. [Related pubchem assays (depositor defined):AID2582, AID2599]. Type of experiment: functional.

The target of experiment [8] is T4, Sentrin-specific protease 6. The experiment in a line: SENP6 protease inhibitors, SAR follow-up, biochemical, luminescence, set 2 (AID 588598). Type of experiment: functional.
Experiment [9] concerns the target T5, Caspase-3 (Homo sapiens, UniProt P42574).
T5 sequence (P42574 whole entry): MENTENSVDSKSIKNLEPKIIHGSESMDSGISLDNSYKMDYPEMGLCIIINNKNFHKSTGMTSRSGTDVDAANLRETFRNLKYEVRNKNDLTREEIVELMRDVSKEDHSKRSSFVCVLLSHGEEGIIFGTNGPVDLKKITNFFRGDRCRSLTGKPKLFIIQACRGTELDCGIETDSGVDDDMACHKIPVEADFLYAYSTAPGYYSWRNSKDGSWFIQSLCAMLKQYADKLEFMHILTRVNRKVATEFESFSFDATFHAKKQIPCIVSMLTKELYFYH
Kind of experiment: caspase-3 inhibitors as off-family protease, SAR follow-up, selectivity assay for SENP protease inhibitor project, biochemical, luminescence, set 2 (AID 588599). The format is functional.

Experiment [10] addresses T5, Caspase-3. The experiment in a line: SAR Analysis of small molecule inhibitors of Sentrin-specific proteases (SENPs) using a Caspase-3 Selectivity assay. [Related pubchem assays (depositor defined):AID2540, AID2599, AID434973, AID489001]. The format is functional.
Experiment [11] concerns the target T6, Sentrin-specific protease 7 (Homo sapiens, UniProt Q9BQF6).
T6 sequence (Q9BQF6 whole entry): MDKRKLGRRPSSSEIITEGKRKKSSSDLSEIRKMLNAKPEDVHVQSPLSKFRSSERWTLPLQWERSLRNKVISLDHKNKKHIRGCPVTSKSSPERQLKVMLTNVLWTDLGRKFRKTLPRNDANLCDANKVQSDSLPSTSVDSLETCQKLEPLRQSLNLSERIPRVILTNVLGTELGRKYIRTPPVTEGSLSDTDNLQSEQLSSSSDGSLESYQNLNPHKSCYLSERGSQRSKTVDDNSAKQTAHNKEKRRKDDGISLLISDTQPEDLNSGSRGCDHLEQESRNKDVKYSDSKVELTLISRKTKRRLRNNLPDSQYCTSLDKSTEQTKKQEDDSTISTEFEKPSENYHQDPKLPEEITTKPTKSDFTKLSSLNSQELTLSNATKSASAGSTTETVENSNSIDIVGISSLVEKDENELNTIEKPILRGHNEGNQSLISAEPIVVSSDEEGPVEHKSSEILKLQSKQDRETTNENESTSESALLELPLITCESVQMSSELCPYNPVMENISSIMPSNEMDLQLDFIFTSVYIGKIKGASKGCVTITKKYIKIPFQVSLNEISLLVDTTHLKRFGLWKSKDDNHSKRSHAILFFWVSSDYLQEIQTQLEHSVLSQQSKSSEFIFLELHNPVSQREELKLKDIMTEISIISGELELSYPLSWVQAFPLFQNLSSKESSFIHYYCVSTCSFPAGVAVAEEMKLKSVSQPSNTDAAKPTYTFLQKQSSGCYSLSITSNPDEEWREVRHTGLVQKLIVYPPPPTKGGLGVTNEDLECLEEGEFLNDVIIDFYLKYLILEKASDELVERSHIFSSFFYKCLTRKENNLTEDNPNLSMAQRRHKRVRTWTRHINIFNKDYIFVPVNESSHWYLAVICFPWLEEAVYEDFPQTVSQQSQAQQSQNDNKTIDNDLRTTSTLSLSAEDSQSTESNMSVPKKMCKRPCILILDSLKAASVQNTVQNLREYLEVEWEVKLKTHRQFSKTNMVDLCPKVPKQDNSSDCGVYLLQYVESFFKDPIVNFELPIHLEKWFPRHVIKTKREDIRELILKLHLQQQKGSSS
Kind of experiment: SENP7 protease inhibitors, SAR follow-up, biochemical, luminescence (AID 504497). Type of experiment: functional.

Experiment [12] has as its target T6, Sentrin-specific protease 7. The experiment in a line: SENP7 protease inhibitors, SAR follow-up, biochemical, luminescence, set 2 (AID 588600). Type of experiment: functional.
In experiment [13] the target is Latent membrane protein 1 (Human herpesvirus 4 (strain B95-8), UniProt P03230). The experiment in a line: TES1-eGFP NF-kB reporter inhibition versus Tet-On dsRED, dose response, selectivity assay for LMP1 NF-kB inhibitor project, imaging, HEK293T, dual-color eGFP/dsRED, cherry-picks (AID 588398). The format is functional, cell-based.
Chain of Latent membrane protein 1 (P03230 whole entry): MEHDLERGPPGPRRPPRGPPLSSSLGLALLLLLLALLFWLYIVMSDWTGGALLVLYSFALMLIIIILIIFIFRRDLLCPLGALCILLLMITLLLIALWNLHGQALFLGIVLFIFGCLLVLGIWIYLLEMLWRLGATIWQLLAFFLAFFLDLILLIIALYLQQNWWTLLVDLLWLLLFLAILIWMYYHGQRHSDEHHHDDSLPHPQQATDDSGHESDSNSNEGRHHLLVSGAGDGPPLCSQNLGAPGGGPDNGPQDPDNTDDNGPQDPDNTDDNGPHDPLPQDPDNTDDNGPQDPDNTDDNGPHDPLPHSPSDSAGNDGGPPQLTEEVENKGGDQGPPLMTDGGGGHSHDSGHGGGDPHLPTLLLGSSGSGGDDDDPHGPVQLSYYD
For the next experiment, the target named is DNA topoisomerase (Yersinia pestis, UniProt A0A2S9PM60). Kind of experiment: Y. pestis Topo-I inhibitors, cleavage product readout, dose response, biochemical, cherry-pick (AID 588525).
Chain of DNA topoisomerase (A0A2S9PM60 whole entry): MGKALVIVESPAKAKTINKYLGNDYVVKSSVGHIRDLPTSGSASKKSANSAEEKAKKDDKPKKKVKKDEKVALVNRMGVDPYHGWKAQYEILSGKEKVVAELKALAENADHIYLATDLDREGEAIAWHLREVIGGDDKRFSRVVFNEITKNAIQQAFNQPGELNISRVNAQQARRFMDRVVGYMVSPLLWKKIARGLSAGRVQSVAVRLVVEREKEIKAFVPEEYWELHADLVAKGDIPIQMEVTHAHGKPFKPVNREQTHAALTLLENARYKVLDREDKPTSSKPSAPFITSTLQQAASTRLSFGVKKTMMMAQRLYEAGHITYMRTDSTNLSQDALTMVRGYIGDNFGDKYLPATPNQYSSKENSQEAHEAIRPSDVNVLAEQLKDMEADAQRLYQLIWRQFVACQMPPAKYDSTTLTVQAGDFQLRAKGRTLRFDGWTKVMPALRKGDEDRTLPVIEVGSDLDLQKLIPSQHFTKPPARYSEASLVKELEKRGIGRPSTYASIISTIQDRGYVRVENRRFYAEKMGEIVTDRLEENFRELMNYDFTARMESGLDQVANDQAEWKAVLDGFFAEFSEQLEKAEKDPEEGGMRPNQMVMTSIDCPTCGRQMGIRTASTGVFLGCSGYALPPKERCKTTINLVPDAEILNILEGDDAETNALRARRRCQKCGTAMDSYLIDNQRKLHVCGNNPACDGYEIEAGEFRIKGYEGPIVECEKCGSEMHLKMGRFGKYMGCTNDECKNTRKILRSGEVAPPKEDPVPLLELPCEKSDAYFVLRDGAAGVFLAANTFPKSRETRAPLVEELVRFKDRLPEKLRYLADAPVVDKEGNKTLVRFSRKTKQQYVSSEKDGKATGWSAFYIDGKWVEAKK

The source made the active and inactive calls. Cut-off read from the data, not from the text of the source, for most assays here: actives have a measured IC50 and inactives only a lower limit.

Chain of G-protein coupled receptor 55 (Q9Y2T6 whole entry): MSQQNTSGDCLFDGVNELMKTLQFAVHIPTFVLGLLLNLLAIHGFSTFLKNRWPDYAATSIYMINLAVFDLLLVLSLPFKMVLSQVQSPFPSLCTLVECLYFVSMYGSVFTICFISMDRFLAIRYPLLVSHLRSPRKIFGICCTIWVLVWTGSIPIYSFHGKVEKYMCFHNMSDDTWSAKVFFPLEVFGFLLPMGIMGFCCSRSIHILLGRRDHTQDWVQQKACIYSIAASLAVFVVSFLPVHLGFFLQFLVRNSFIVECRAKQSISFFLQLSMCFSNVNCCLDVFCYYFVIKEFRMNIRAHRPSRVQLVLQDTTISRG

`O=CC1=C(c2ccccc2)Oc2ccccc2O1`: the EC50 (in general, the concentration needed to bring the measured effect to its halfway point) in experiment [1] was 2280 nM (active); in [3] it was 16000 nM (active). For the same molecule, the AC50 (commonly the concentration giving half of the maximal activity seen) in the experiment with HeLa is 23900 nM (active); in experiment [4], 2140 nM (active). In addition, the IC50 (commonly the concentration needed to halve the response being measured) in experiment [2] is 10400 nM (inactive).
For `O=C(Nc1nc2ccc(Cl)cc2s1)c1nccs1`, the IC50 was 2380 nM (active) in experiment [5]; 3500 nM (active) in [6]; 3200 nM (active) in experiment [7]; 2890 nM (active) in experiment [8]; 1980 nM (active) at Caspase-3 [9]; 2400 nM (active) on Caspase-3 [10]. Further, the IC50 in experiment [11] was 2500 nM (active); in experiment [12], 2900 nM (active).
Consider `O=C1N[C@@H](Cc2c[nH]c3ccccc23)COC(=O)[C@H](Cc2ccc(F)cc2)C/C=C\C[C@H]1CC(=O)N(CCO)Cc1ccccc1`, for which, in experiment [13], the AC50 was 30100 nM (active).
As for `CC(C)(C)c1ccc(OCCn2nc(C(=O)O)c3ccccc3c2=O)cc1`, the AC50 on DNA topoisomerase was 9120 nM (active).

(Values after ChEMBL document CHEMBL1201862, “PubChem BioAssay data set” (2004).)
